Data set [1] has as its target Multidrug resistance-associated protein 1 (Homo sapiens, UniProt P33527). As to the kind of experiment: TP_TRANSPORTER: inhibition of CFDA efflux (CFDA: 1 uM, DHT: 5-50 uM) in HL60/Adr cells. It counts as functional, cell-based.
The target in data set [2] is Multidrug resistance-associated protein 1 (MRP1) (Homo sapiens, UniProt P33527). Nature of the data set: TP_TRANSPORTER: inhibition of CFDA efflux (CFDA: 1 uM, Genistein: 10 mM) in HL60/Adr cells. Format: functional, cell-based. Conditions: probe CFDA, read-out: Activity.
Chain of Multidrug resistance-associated protein 1 (MRP1) (P33527 whole entry): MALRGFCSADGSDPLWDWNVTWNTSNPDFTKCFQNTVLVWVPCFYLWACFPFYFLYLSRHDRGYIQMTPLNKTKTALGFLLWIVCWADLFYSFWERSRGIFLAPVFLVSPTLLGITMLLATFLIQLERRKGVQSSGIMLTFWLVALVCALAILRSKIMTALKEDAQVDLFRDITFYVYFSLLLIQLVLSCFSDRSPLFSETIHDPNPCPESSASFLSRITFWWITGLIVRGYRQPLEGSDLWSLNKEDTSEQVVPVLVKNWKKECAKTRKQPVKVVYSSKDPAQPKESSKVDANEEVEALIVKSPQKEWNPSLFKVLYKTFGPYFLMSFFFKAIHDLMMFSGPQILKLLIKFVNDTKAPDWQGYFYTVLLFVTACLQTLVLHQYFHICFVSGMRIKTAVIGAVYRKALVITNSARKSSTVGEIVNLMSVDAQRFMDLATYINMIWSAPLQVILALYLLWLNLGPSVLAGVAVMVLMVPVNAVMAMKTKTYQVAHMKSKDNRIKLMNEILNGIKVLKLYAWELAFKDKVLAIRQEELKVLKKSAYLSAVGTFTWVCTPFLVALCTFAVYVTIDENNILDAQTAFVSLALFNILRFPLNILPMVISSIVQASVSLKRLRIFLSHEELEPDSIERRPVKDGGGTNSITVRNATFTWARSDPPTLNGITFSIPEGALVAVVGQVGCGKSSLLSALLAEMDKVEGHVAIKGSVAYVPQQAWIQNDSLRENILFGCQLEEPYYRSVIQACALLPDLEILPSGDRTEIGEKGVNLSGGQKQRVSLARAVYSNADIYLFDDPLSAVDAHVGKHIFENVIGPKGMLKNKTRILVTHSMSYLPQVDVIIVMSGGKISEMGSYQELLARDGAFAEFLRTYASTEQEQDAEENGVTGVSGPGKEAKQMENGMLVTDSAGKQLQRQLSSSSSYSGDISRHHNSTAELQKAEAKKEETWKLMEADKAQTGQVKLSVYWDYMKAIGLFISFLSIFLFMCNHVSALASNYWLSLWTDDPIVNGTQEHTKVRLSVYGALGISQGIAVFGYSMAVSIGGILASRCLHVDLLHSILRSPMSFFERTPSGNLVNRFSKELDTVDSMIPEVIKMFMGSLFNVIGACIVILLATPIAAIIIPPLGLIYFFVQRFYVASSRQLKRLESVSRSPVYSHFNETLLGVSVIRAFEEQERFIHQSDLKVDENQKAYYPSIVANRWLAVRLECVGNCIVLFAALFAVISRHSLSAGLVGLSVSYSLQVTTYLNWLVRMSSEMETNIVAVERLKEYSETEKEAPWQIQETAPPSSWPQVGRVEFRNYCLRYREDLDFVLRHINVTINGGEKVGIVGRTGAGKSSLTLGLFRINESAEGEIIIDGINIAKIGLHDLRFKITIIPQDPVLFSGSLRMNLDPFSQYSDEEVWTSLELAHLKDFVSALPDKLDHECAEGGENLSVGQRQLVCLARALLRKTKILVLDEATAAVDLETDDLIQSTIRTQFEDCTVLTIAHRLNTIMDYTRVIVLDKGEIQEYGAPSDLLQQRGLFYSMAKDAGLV

Chain of Multidrug resistance-associated protein 1 (P33527 whole entry): as above

With `C=C(CC[C@H](O)[C@@]1(C)CC[C@H](C(C)(C)O)O1)[C@H]1CC[C@H]2O[C@@H]([C@]3(C)CC[C@@H](Br)C(C)(C)O3)CC[C@]2(C)O1` [DEHYDROTHYRSIFEROL], the Activity result in data set [1] was “is not an inhibitor [-]”.
Regarding `O=c1c(-c2ccc(O)cc2)coc2cc(O)cc(O)c12` [GENISTEIN], the inhibition at 10 mM in data set [2] amounted to 94.6%.

For the origin of these results see ChEMBL document CHEMBL2073888, “Dehydrothyrsiferol does not modulate multidrug resistance-associated protein 1 resistance: a functional screening system for MRP1 substrates” (Int J Mol Med, 2002).
